Reference: patent US7595401B2, “Therapeutic compounds and their use in cancer” (Myriad Pharmaceuticals, Inc., priority 2006, dated 2009)

What follows are molecules tested on purified human Hsp90 (assay: Binding Assay: fluorescence polarization with BODIPY-labeled geldanamycin). Conditions: 5 μM compound, BODIPY-GM 10 nM, Hsp90 30 nM.
Method in brief: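 Compounds in 2% DMSO final compete with 10 nM BODIPY-GM for 30 nM purified human Hsp90, incubated overnight at room temperature in pH 7.3 HEPES buffer containing Na2MoO4 and DTT. Polarization (mP, ex/em 485/530) normalized to DMSO gives percent inhibition; autofluorescence-confounded data excluded.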
`Nc1ncn(CCC2CCN(C=O)CC2)c2nc(Sc3cc4c(cc3Br)OCO4)nc1-2` [Example 602, 4-(2-{6-Amino-8-[(6-bromo-1,3-benzodioxol-5-yl)thio]-3 H-purin-3-yl}ethyl)piperidine-1-carbaldehyde] was tested, and the “% Inhibition at 5 μM Compound Concentration” value (“% Inhibition” for short) was 31.00%. `COc1ccc(OC)c(Sc2nc3c(N)ncn(CCc4ccccn4)c-3n2)c1` [Example 136, 8-(2,5-Dimethoxy-phenylsulfanyl)-3-(2-pyridin-2-yl-ethyl)-3H-purin-6-ylamine] was tested, and the “% Inhibition” value was 16%. `Nc1ncn(CCc2ccccc2Cl)c2nc(Sc3ccc4c(c3)OC(F)(F)O4)nc1-2` [Example 295, 3-[2-(2-Chlorophenyl)ethyl]-8-[(2,2-difluoro-1,3-benzodioxol-5-yl)thio]-3H-purin-6-amine] was tested, and the “% Inhibition” value was 0.0%. For `Nc1ncn(CCc2ccccc2)c2nc(Sc3ccc(Cl)cc3)nc1-2` [Example 18, 8-(4-chloro-phenylsulfanyl)-3-phenethyl-3H-purin-6-ylamine], the “% Inhibition” value was 0%. `COc1ccc(OC)c(Sc2nc3c(N)ncn(CCc4ccc(Cl)cc4F)c-3n2)c1` [Example 98, 3-[2-(4-chloro-2-fluoro-phenyl)-ethyl]-8-(2,5-dimethoxy-phenylsulfanyl)-3H-purin-6-ylamine] was tested, and the “% Inhibition” value was 0%. `Cc1cc(C)c(CCn2cnc(N)c3nc(Sc4cc5c(cc4Br)OCO5)nc2-3)c(C)c1` [Example 94, 8-(6-bromo-benzo[1,3]dioxol-5-ylsulfanyl)-3-[2-(2,4,6-trimethyl-phenyl)-ethyl]-3H-purin-6-ylamine] was tested, and the “% Inhibition” value was 0%. `COc1ccc(OC)c(Sc2nc3c(N)ncn(CCc4ccc(S(=O)(=O)NC(C)(C)C)cc4)c-3n2)c1` [Example 276, 4-(2-{6-Amino-8-[(2,5-dimethoxyphenyl)thio]-3H-purin-3-yl}ethyl)-N-(tert-butyl)benzenesulfonamide] was tested, and the “% Inhibition” value was 0.0%. `COc1ccc(OC)c(Sc2nc3c(N)ncn(CC4(c5ccc(Cl)cc5)CC4)c-3n2)c1` [Example 280, 3-{[1-(4-Chlorophenyl)cyclopropyl]methyl}-8-[(2,5-dimethoxyphenyl)thio]-3H-purin-6-amine] was tested, and the “% Inhibition” value was 0.0%. `CC(=O)N1CCCC(CCn2cnc(N)c3nc(Sc4cc5c(cc4Br)OCO5)nc2-3)C1` (centres unmarked) [Example 401, 3-[2-(1-Acetylpiperidin-3-yl)ethyl]-8-[(6-bromo-1,3-benzodioxol-5-yl)thio]-3H-purin-6-amine] was tested, and the “% Inhibition” value was 2%. For `COc1ccc(C2(Cn3cnc(N)c4nc(Sc5cc6c(cc5Br)OCO6)nc3-4)CC2)cc1` [Example 60, 8-(6-bromo-benzo[1,3]dioxol-5-ylsulfanyl)-3-[1-(4-methoxy-phenyl)-cyclopropylmethyl]-3H-purin-6-ylamine], the “% Inhibition” value was 30%. With `Nc1ncn(CCc2ccc3ccccc3c2)c2nc(Sc3cc4c(cc3Br)OCO4)nc1-2` [Example 303, 8-[(6-Bromo-1,3-benzodioxol-5-yl)thio]-3-[2-(2-naphthyl)ethyl]-3H-purin-6-amine] the “% Inhibition” value was 21.0%. In the case of `Cc1ccc(C)c(CCn2cnc(N)c3nc(Sc4cc5c(cc4Br)OCO5)nc2-3)c1` [Example 125, 8-(6-bromo-benzo[1,3]dioxol-5-ylsulfanyl)-3-[2-(2,5-dimethyl-phenyl)-ethyl]-3H-purin-6-ylamine], the “% Inhibition” value is reported as 12%. For `COc1ccc(OC)c(Sc2nc3c(N)ncn(CCc4ccc(Br)cc4)c-3n2)c1` [Example 72, 3-[2-(4-bromo-phenyl)-ethyl]-8-(2,5-dimethoxy-phenylsulfanyl)-3H-purin-6-ylamine], the “% Inhibition” value was 0%. For `COc1ccc(OC)c(Sc2nc3c(N)ncn(CCc4cc(C)cc(C)c4)c-3n2)c1` [Example 133, 8-(2,5-dimethoxy-phenylsulfanyl)-3-[2-(3,5-dimethyl-phenyl)-ethyl]-3H-purine-6-ylamine], the “% Inhibition” value was 0%.

Same assay, conditions: BODIPY-GM 10 nM, Hsp90 30 nM
For `Nc1ncnc2c1nc(Sc1cc3c(cc1Br)OCO3)n2CCC1CCN(S(=O)(=O)C(F)(F)F)CC1` [Example 387, 8-[(6-Bromo-1,3-benzodioxol-5-yl)thio]-9-(2-{1-[(trifluoromethyl)sulfonyl]piperidin 4-yl}ethyl)-9H-purin-6-amine], the IC50 was over 8000 nM. In the case of `Nc1ncnc2c1nc(Sc1cc3c(cc1Br)OCO3)n2CCCc1ccccc1` [Example 43, 8-(6-Bromo-benzo[1,3]dioxol-5-ylsulfanyl)-9-(3-phenyl-propyl)-9H-purin-6-ylamine], the IC50 is reported as 700 nM. `CC(=O)N1CCC(CCn2cnc(N)c3nc(Sc4cc5c(cc4C#N)OCO5)nc2-3)CC1` [Example 621, 6-({3-[2-(1-Acetylpiperidin-4-yl)ethyl]-6-amino-3 H-purin-8-yl}thio)-1,3-benzodioxole-5-carbonitrile] was tested, and the IC50 was over 5000 nM. Molecule `COc1ccc(OC)c(Sc2nc3c(N)ncnc3n2CCc2cccc(OC(F)(F)F)c2)c1` [Example 217, 8-(2,5-Dimethoxy-phenylsulfanyl)-9-[2-(3-trifluoromethoxy-phenyl)-ethyl]-9H-purin-6-ylamine] has an IC50 of over 10000 nM. Work on `Cc1ncsc1CCn1c(Sc2cc3c(cc2Br)OCO3)nc2c(N)ncnc21` [Example 330, 8-[(6-Bromo-1,3-benzodioxol-5-yl)thio]-9-[2-(4-methyl-1,3-thiazol-5-yl)ethyl]-9H-purin-6-amine] yielded an IC50 of 70 nM. Work on `Nc1ncnc2c1nc(Sc1cc3c(cc1I)OCO3)n2CCc1ccccc1` [Example 33, 8-(-6-Iodo-benzo[1,3]dioxol-5-ylsulfanyl)-9-phenethyl-9H-purin-6-ylamine] yielded an IC50 of 17 nM. For `CC(C)C[C@H](NC(=O)OC(C)(C)C)C(=O)N1CCC(CCn2c(Sc3cc4c(cc3Br)OCO4)nc3c(N)ncnc32)CC1` [Example 699, tert-Butyl((1S)-1-{[4-(2-{6-amino-8-[(6-bromo-1,3-benzodioxol-5-yl)thio]-9H-purin-9-yl}ethyl)piperidin-1-yl]carbonyl}-3-methylbutyl)carbamate], the IC50 was 600 nM. `C#CCN1CCC(CCn2c(Sc3cc4c(cc3Br)OCO4)nc3c(N)ncnc32)CC1` [Example 625, 8-[(6-Bromo-1,3-benzodioxol-5-yl)thio]-9-[2-(1-prop-2-yn-1-ylpiperidin-4-yl)ethyl]-9 H-purin-6-amine] gave an IC50 of 110 nM. Work on `Nc1ncnc2c1nc(Sc1cc3c(cc1Br)OCO3)n2CCc1ccccc1Br` [Example 149, 8-(6-Bromo-benzo[1,3]dioxol-5-ylsulfanyl)-9-[2-(2-bromo-phenyl)-ethyl]-9H-purin-6-ylamine] yielded an IC50 of 70 nM. Molecule `Nc1ncnc2c1nc(Sc1cc3c(cc1Br)OCO3)n2CCC1CCN(C(=O)C2(N)CC2)CC1` [Example 751, 9-(2-{1-[(1-Amino-cyclopropyl)carbonyl]piperidine-4-yl}ethyl)-8-[(6-bromo-1,3-benzodioxol-5-yl)thio]-9H-purin-6-amine] has an IC50 of 195 nM. With `Nc1ncnc2c1nc(Sc1cc3c(cc1Br)OCO3)n2CC[C@H]1CCCNC1` [Example 473, 8-[(6-Bromo-1,3-benzodioxol-5-yl)thio]-9-{2-[(3R)-piperidin-3-yl]ethyl}-9 H-purin-6-amine] the IC50 was 35 nM. In the case of `COc1ccc([N+](=O)[O-])cc1Sc1nc2c(N)ncnc2n1CCC1CCN(C=O)CC1` [Example 536, 4-(2-{6-Amino-8-[(2-methoxy-5-nitrophenyl)thio]-9 H-purin-9-yl}ethyl)piperidine-1-carbaldehyde], the IC50 is reported as over 5000 nM. For `Nc1ncnc2c1nc(Sc1cc3c(cc1Br)OCO3)n2CCC1CCN(Cc2ccc(F)cc2)CC1` [Example 579, 8-[(6-Bromo-1,3-benzodioxol-5-yl)thio]-9-{2-[1-(4-fluorobenzyl)piperidin-4-yl]ethyl}-9 H-purin-6-amine], the IC50 was 310 nM. In the case of `CCC(C)C(Cn1c(Sc2cc3c(cc2Br)OCO3)nc2c(N)ncnc21)c1ccccc1` (centres unmarked) [Example 99, 8-(6-Bromo-benzo[1,3]dioxol-5-ylsulfanyl)-9-(3-methyl-2-phenyl-pentyl)-9H-purin-6-ylamine], the IC50 is reported as 300 nM. In the case of `Nc1ncnc2c1nc(Sc1cc3c(cc1Br)OCO3)n2CC[C@H]1CCCCN1` [Example 475, 8-[(6-Bromo-1,3-benzodioxol-5-yl)thio]-9-{2-[(2R)-piperidin-2-yl]ethyl}-9 H-purin-6-amine], the IC50 is reported as 172 nM. Molecule `C[C@H](NC(=O)OC(C)(C)C)C(=O)N1CCC(CCn2c(Sc3nc4cccc(Cl)c4s3)nc3c(N)ncnc32)CC1` [Example 773, tert-Butyl {(1S)-2-[4-(2-{6-amino-8-[(7-chloro-1,3-benzothiazol-2-yl)thio]-9H-purin-9-yl}ethyl)piperidin-1-yl]-1-methyl-2-oxoethyl}carbamate] has an IC50 of 390 nM. In the case of `CC(C)C(Cn1c(Sc2cc3c(cc2Br)OCO3)nc2c(N)ncnc21)c1ccccc1` (centres unmarked) [Example 126, 8-(6-Bromo-benzo[1,3]dioxol-5-ylsulfanyl)-9-(3-methyl-2-phenyl-butyl)-9H-purin-6-ylamine], the IC50 is reported as 300 nM. Work on `CN[C@@H](C)C(=O)N1CCC(CCn2c(Sc3cc4c(cc3Br)OCO4)nc3c(N)ncnc32)CC1` [Example 749, 8-[(6-Bromo-1,3-benzodioxol-5-yl)thio]-9-(2-{1-[(2S)-2-(methylamino)propanoyl]piperidin-4-yl}ethyl)-9H-purin-6-amine] yielded an IC50 of 330 nM. `Nc1ncnc2c1nc(Sc1cc3c(cc1Br)OCO3)n2CCC1CCCCN1C(=O)OCc1ccccc1` (centres unmarked) [Example 592, Benzyl 2-(2-{6-amino-8-[(6-bromo-1,3-benzodioxol-5-yl)thio]-9 H-purin-9-yl}ethyl)piperidine-1-carboxylate] showed an IC50 of over 5000 nM. Work on `COc1ccc2sc(Sc3nc4c(N)ncnc4n3CCC3CCN(C(C)=O)CC3)nc2c1` [Example 658, 9-[2-(1-Acetylpiperidin-4-yl)ethyl]-8-[(5-methoxy-1,3-benzothiazol-2-yl)thio]-9H-purin-6-amine] yielded an IC50 of over 5000 nM. In the case of `CC(C)NC(=O)N1CCCC(CCn2c(Sc3cc4c(cc3Br)OCO4)nc3c(N)ncnc32)C1` (centres unmarked) [Example 436, 3-(2-{6-Amino-8-[(6-bromo-1,3-benzodioxol-5-yl)thio]-9H-purin-9-yl}ethyl)-N-isopropylpiperidine-1-carboxamide], the IC50 is reported as 390 nM.
